“Also recorded” adds a separate entry of the source. No end group written: not given here.
How the values were obtained:
Fgr hyphae = assay type: cell-based, Fusarium graminearum
hyphal cells = assay type: cell-based
Fov hyphae = assay type: cell-based, Fusarium oxysporum f. sp vasinfectum

| Substance | Permeability index (Fgr hyphae) | Permeabilizing (hyphal cells) | permeabilization of Fgr hyphae (SYTOX green uptake), in words (Fgr hyphae) | Permeability index (Fov hyphae) | permeabilization of Fov hyphae (SYTOX green uptake), in words (Fov hyphae) |
| --- | --- | --- | --- | --- | --- |
| HXL001: Class I plant defensin, Zea mays, mature domain SEQ ID NO: 3 (RHCLSQSHRFKGLCMSSNNCANVCETQNFPGGECKAEGATRKCFCKKIC; HXL001 Zea mays mature domain) | 0.9 | Yes | – | – | – |
| HXL002: Class I plant defensin, Triticum aestivum, mature domain SEQ ID NO: 6 (RDCLSQSHKFKGACLSSSNCAAVCRTENFPDGECHTHNFARKCFCKRAC; HXL002 Triticum aestivum mature domain) | 1.0 | Yes | significantly more permeabilisation of Fgr hyphae; also recorded: permeabilizing | 0.9 | able to permeabilize Fov hyphae; also recorded: permeabilizing |
| HXL004: Class I plant defensin, Nicotiana benthamiana, mature domain SEQ ID NO: 12 (RTCESQSHRFKGLCFSRSNCASVCHTEGFNGGHCRGFRRRCFCTRHC; HXL004 Nicotiana benthamiana mature domain aa) | 1.6 | Yes | significantly more permeabilisation of Fgr hyphae; also recorded: permeabilizing | – | – |
| HXL005: Class I plant defensin, Taraxacum kok-saghyz, mature domain SEQ ID NO: 15 (KMCQTTSHAFSCVNDSGCSGSCEKQGFASGKCDGVRRRCTCYKKC; HXL005 Taraxacum kok-saghyz mature domain) | – | No | – | – | – |
| HXL007: Class I plant defensin, Cyamopsis tetragonoloba, mature domain SEQ ID NO: 21 (RTCESLADTYRGPCFTDGSCDDHCKNKEHLISGRCRNDFRCWCTRNC; HXL007 Cyamopsis tetragonoloba mature domain) | – | Yes | – | 1.2 | able to permeabilize Fov hyphae; also recorded: permeabilizing |
| HXL008: Class I plant defensin, Picramnia pentandra, mature domain SEQ ID NO: 24 (KVCTKPSKFFKGLCGTDGACTTACRKEGLHSGYCQLKGFLNSVCVCRKHC; HXL008 Picramnia pentandra mature domain aa) | 0.9 | Yes | significantly more permeabilisation of Fgr hyphae; also recorded: permeabilizing | 0.8 | able to permeabilize Fov hyphae; also recorded: permeabilizing |
| HXL009: Class I plant defensin, Zea mays, mature domain SEQ ID NO: 27 (TVCMRHNNFYHGPCMSNKDCANSCVQHNLGVGGYCRGKIPFNKECMCTFEC; HXL009 Zea mays mature domain aa) | 0.4 | No | non-permeabilizing | – | – |
| HXL013: Class I plant defensin, Glycine max, mature domain SEQ ID NO: 39; Table 2 gives SBI6 the same SEQ ID NO (KDCLTRRHGFQGRCLFDRQCAHVCRSDGPIGGQCRGPLRKCFCSRPC; HXL013 Glycine max mature domain aa) | 1.4 | Yes | permeabilizing | – | – |
| HXL015: Class I plant defensin, Oryza sativa, mature domain SEQ ID NO: 45 (RHCLSQSHRFKGMCVSSNNCANVCRTESFPDGECKSHGLERKCFCKKVC; HXL015 Oryza sativa mature domain aa) | – | No | – | – | – |
| HXL021: Class I plant defensin, Arachis hypogaea, mature domain SEQ ID NO: 63 (ATCENLADTYRGPCFTTGSCDDHCKNKEHLLSGRCRDDFRCWCTRNC; HXL021 Arachis hypogaea mature domain aa) | 0.5 | No | non-permeabilizing | – | – |
| HXP4: artificial variant defensin, SEQ ID NO: 70 (RECKTESHRFKGPCITKPPCRKACISEKFTDGHCSKILRRCLCTKPC; Amino acid sequence of HXP4 (NaD2 Loop1B [NaD2L1B] in NaD1)) | 1.3 | Yes | significantly more permeabilisation of Fgr hyphae; also recorded: permeabilizing | 0.7 | able to permeabilize Fov hyphae; also recorded: permeabilizing |
| HXP34: artificial variant defensin, SEQ ID NO: 71 (RECKTESQHHSFPCITKPPCRKACISEKFTDGHCSKILRRCLCTKPC; Amino acid sequence of HXP34 (Zea2 Loop1B [Zea2L1B] in NaD1)) | – | Yes | – | – | – |
| HXP35: artificial variant defensin, SEQ ID NO: 72 (RECKTESDTYRGVCITKPPCRKACISEKFTDGHCSKILRRCLCTKPC; Amino acid sequence of HXP35 (PsD1 Loop1B [PsDL1B] in NaD1)) | – | Yes | – | – | – |
| Hordothionin: Class I plant defensin, Hordeum vulgare, accession P20230 | 0.4 | No | non-permeabilizing | – | – |
| NaD1: Class II plant defensin, Nicotiana alata, accession Q8GTM0; positive control of the permeabilization assay (RECKTESNTFPGICITKPPCRKACISEKFTDGHCSKILRRCLCTKPC; UniProt Q8GTM0 26-72, looked up) [reference compound] | 1.0 | Yes | significantly more permeabilisation of Fgr hyphae; also recorded: permeabilizing | 1.0 | able to permeabilize Fov hyphae; also recorded: permeabilizing |
| NoD173: Class II plant defensin, Nicotiana occidentalis, mature domain SEQ ID NO: 98 (RQCKAESNTFTGICIAKPPCRQACIREKFTDGHCSKVLRRCLCTKRC; NoD173 Nictoniana occidentalis) | – | Yes | – | – | – |
| RsAFP2: Class I plant defensin, Raphanus sativus, accession P30230 (QKLCQRPSGTWSGVCGNNNACKNQCIRLEKARHGSCNYVFPAHKCICYFPC; ends and bridges not checked; cysteine pairing not given here; UniProt P30230 30-80, looked up) | 0.3 | No | non-permeabilizing | – | – |
| VP42: Class I plant defensin, Triticum aestivum, mature domain SEQ ID NO: 81 (RHCESQSHRYRGACWRDDNCKHVCNTEGFPSGKCKFHGFESKCVCTKPC; VP42 mature domain) | – | No | – | – | – |
| VP45: Class I plant defensin, Zea mays, mature domain SEQ ID NO: 83 (TVCMRHNNFYHGPCMSNKDCANSCVQHNLGVGGYCRGKIPFNKECMCTFEC; VP45 mature domain) | – | No | – | – | – |
| VP135: Class I plant defensin, Picramnia pentandra, mature domain SEQ ID NO: 85 (RICSSLSHGYKGPCASDHNCALVCRNEGFSGGDCHGLRRRCFCTKAC; VP135 mature domain) | – | No | – | – | – |
